From patent US8530652B2, “Pyrrolopyrazoles, potent kinase inhibitors” (Agouron Pharmaceuticals, Inc., priority 2005, dated 2013) come the findings set out here.

Some results are limits rather than exact numbers.

Sequence of PAK4 kinase activity in whole cells (TR-293-KDG, modified HEK 293 overexpressing GEF-H1b and PAK4 KD) (O96013 321-572): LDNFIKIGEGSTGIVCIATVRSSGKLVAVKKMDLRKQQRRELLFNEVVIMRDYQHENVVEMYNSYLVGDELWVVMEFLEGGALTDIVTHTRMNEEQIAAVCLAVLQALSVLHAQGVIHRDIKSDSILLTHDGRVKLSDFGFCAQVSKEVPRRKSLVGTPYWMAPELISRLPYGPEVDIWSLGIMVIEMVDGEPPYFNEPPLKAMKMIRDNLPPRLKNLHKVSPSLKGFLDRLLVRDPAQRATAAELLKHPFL

The first assay has as its target PAK4 kinase activity in whole cells (TR-293-KDG, modified HEK 293 overexpressing GEF-H1b and PAK4 KD) (Homo sapiens (Human), UniProt O96013). Description: PAK4 cellular assay: sandwich ELISA of PAK4-dependent phosphorylation of GEF-H1b in TR-293-KDG cells. Type of assay: cell-based. Conditions: doxycycline-induced, 3-hour exposure, phospho-GEF-H1b ELISA. The source says:
A sandwich ELISA method was used to measure the PAK4 kinase activity in whole cells. The level of PAK4-dependent phosphorylation of GEF-H1b can be determined by monitoring the binding of a phosphospecific antibody to GEF-H1b. A modified HEK 293 cell line is used in the bioassay and it has been engineered to overexpress both GEF-H1b and the kinase domain (KD) of PAK4. The KD of PAK4 is inducible in this cell line by tetracycline (Trex system, Invitrogen). The name of this cell line has been designated TR-293-KDG. To establish a phosphorylation event on GEF-H1, cells are induced with doxycycline to express the PAK4 KD. […] Candidate substance effect is measured as the ability to block this phosphorylation event.
ELISA plate was prepared by pre-coating the plates with a capture antibody (α-HA-tag mouse monoclonal antibody), blocked with BSA, and washed in 0.1% tween 20 in tris-buffered saline (TBST). Tissue culture plates (precoated with poly-D-lysine) were seeded with TR-293-KDG cells. The TR-293-KDG Cells were induced to express the PAK4 KD with doxycycline overnight and subsequently & concomitantly treated with candidate substances or diluent for an additional 3-hour, continuous exposure. Cells were then lysed with a modified RIPA buffer supplemented with protease inhibitors. The fresh whole cell lysates were then added to the ELISA plate for 2-hours. Between all subsequent steps plates were washed 4 times with TBST. Detection antibody (recognizing the phospho-specific eptitope on GEF-H1b) was added for 1 hour, followed by addition of an enzyme linked goat α-rabbit secondary antibody for 45 minutes. […] EC50 values were calculated by sigmoid curve fitting using a four-parameter analysis.
(In general: ELISA stands for enzyme-linked immunosorbent assay.)
On to `CC1(C)c2[nH]nc(Nc3ncnc4ccsc34)c2CN1C(=O)N[C@H]1C[C@@H]1c1ccccc1` (relative stereo) [Example 1, 6,6-dimethyl-N-[trans-2-phenylcyclopropyl]-3-(thieno[3,2-d]pyrimidin-4-ylamino)-4,6-dihydropyrrolo[3,4-c]pyrazole-5(1H)-carboxamide], for which the EC50 (commonly the midpoint of the concentration-response curve) was over 2000 nM.
Consider `CC1(C)c2[nH]nc(Nc3nc(Cl)nc4ccsc34)c2CN1C(=O)N[C@@H]1C[C@H]1c1ccccc1` (relative stereo) [Example 2, 3-[(2-chlorothieno[3,2-d]pyrimidin-4-yl)amino]-6,6-dimethyl-N-[trans-2-phenylcyclopropyl]-4,6-dihydropyrrolo[3,4-c]pyrazole-5(1H)-carboxamide], for which the EC50 stood at 36 nM.
The same measure, in the same setting: next, `CCCOc1nc(Cl)nc(Nc2n[nH]c3c2CN(C(=O)N[C@@H]2C[C@H]2c2ccccc2)C3(C)C)n1` (relative stereo) [Example 7, 3-[(4-chloro-6-propoxy-1,3,5-triazin-2-yl)amino]-6,6-dimethyl-N-[trans-2-phenylcyclopropyl]-4,6-dihydropyrrolo[3,4-c]pyrazole-5(1H)-carboxamide]: over 4000 nM; `CC1(C)c2[nH]nc(Nc3nc(Cl)nc(Cl)n3)c2CN1C(=O)N[C@@H]1C[C@H]1c1ccccc1` (relative stereo) [Example 9, 3-[(4,6-dichloro-1,3,5-triazin-2-yl)amino]-6,6-dimethyl-N-[trans-2-phenylcyclopropyl]-4,6-dihydropyrrolo[3,4-c] pyrazole-5(1H)-carboxamide]: over 4000 nM; `Cn1cnc2c(Nc3n[nH]c4c3CN(C(=O)N[C@@H]3C[C@H]3c3ccccc3)C4(C)C)ncnc21` (relative stereo) [Example 36, 6,6-dimethyl-3-[(9-methyl-9H-purin-6-yl)amino]-N-[trans-2-phenylcyclopropyl]-4,6-dihydropyrrolo[3,4-c]pyrazole-5(1H)-carboxamide]: over 4000 nM.
Take `Cc1nccc(Nc2n[nH]c3c2CN(C(=O)N[C@@H]2C[C@H]2c2ccccc2)C3(C)C)n1` (relative stereo) [Example 39, 6,6-dimethyl-3-[(2-methylpyrimidin-4-yl)amino]-N-[trans-2-phenylcyclopropyl]-4,6-dihydropyrrolo[3,4-c]pyrazole-5(1H)-carboxamide]: the EC50 is over 4000 nM.
On the same count and under the same terms, the figure for `CN(C)C[C@@H](NC(=O)N1Cc2c(Nc3ccnc(C(F)(F)F)n3)n[nH]c2C1(C)C)c1ccccc1` [Example 55, N-[(1S)-2-(dimethylamino)-1-phenylethyl]-6,6-dimethyl-3-{[2-(trifluoromethyl)pyrimidin-4-yl]amino}-4,6-dihydropyrrolo[3,4-c]pyrazole-5(1H)-carboxamide] is over 4000 nM.

In the next assay the target is PAK4 kinase domain (PAK4 KD) (Homo sapiens (Human), UniProt O96013). Description: PAK4 kinase domain enzymatic assay (coupled PK/LDH, NADH absorbance at 340 nm). Type of assay: biochemical. Conditions: PAK4 kinase domain, 25 nM PAK4 KD, 0.04 mM ATP, pH 7.5. The source says: Cloning, expression, and purification of recombinant PAK4 Kinase domain (PAK4 KD): The cDNA coding for PAK4 was amplified from the EST clone (#12) (purchased from Research Genetics) by using PCR. […] The PCR amplified product was cloned into Topo vector (Invitrogen Inc.), and verified by DNA sequencing. PAK4 KD was then subcloned into expression plasmid pET28a(+), pET24a(+), or pGST4.5. The recombinant plasmids containing PAK4 KD was transformed into BL21(DE3) cells for recombinant protein expression. […] The cells were then harvested and lyzed for protein purification. Ni-NTA column (pET28a(+), pET24a(+)) and glutathione column (pGST4.5) were used for the purification.
Sequence of PAK4 kinase domain (PAK4 KD) (O96013 321-572): as above
PAK4 kinase domain enzymatic assay conditions: the enzymatic activity of PAK4 KD was measured by its ability to catalyze the transfer of a phosphate residue from a nucleoside triphosphate to an amino acid side chain of a commercially available peptide (amino acid sequence […]). The conversion of ATP to ADP accompanies the catalytic reaction. The PAK4 KD catalyzed production of ADP from ATP was coupled to the oxidation of NADH through the activities of pyruvate kinase (PK) and lactate dehydrogenase (LDH). The conversion of NADH to NAD^+ is monitored by the decrease in absorbance at 340 nm (e340=6.22 cm^−1mM^−1) using a Molecular Devices SPECTRAMAX 190 in conjunction with the Biomec FX. Typical reaction solutions contain 2 mM phosphoenolpyruvate, 0.35 mM NADH, 10 mM MgCl2, 1 mM DTT, 0.4 mM peptide ([…]) 0.04 mM ATP, 1 units/mL PK, 1 units/mL LDH, 0.01% Tween 20 in 50 mM HEPES, pH 7.5. […] The PAK KD Ki of each compound of the invention (the inhibitor) was calculated based on multiple of Percent Inhibition numbers of the inhibitor at different inhibitor concentrations. The peptide (amino sequence […]) was purchased from American Peptide Company. NADH, MgCl2, HEPES, DTT, ATP and PK/LDH were purchased from Sigma. Tween 20 was purchased from Calbiochem.
For `CC1(C)c2[nH]nc(Nc3ncnc4ccsc34)c2CN1C(=O)N[C@H]1C[C@@H]1c1ccccc1` (relative stereo) [Example 1, 6,6-dimethyl-N-[trans-2-phenylcyclopropyl]-3-(thieno[3,2-d]pyrimidin-4-ylamino)-4,6-dihydropyrrolo[3,4-c]pyrazole-5(1H)-carboxamide], the Ki (commonly a dissociation constant, usually derived from enzyme kinetics or from competition with a known ligand) stood at 41 nM.
In turn, `CC1(C)c2[nH]nc(Nc3nc(Cl)nc4ccsc34)c2CN1C(=O)N[C@@H]1C[C@H]1c1ccccc1` (relative stereo) [Example 2, 3-[(2-chlorothieno[3,2-d]pyrimidin-4-yl)amino]-6,6-dimethyl-N-[trans-2-phenylcyclopropyl]-4,6-dihydropyrrolo[3,4-c]pyrazole-5(1H)-carboxamide] displayed a Ki of 14 nM.
`CCCOc1nc(Cl)nc(Nc2n[nH]c3c2CN(C(=O)N[C@@H]2C[C@H]2c2ccccc2)C3(C)C)n1` (relative stereo) [Example 7, 3-[(4-chloro-6-propoxy-1,3,5-triazin-2-yl)amino]-6,6-dimethyl-N-[trans-2-phenylcyclopropyl]-4,6-dihydropyrrolo[3,4-c]pyrazole-5(1H)-carboxamide] showed a Ki of 87 nM.
Same read-out and setting: the figure for `CC1(C)c2[nH]nc(Nc3nc(Cl)nc(Cl)n3)c2CN1C(=O)N[C@@H]1C[C@H]1c1ccccc1` (relative stereo) [Example 9, 3-[(4,6-dichloro-1,3,5-triazin-2-yl)amino]-6,6-dimethyl-N-[trans-2-phenylcyclopropyl]-4,6-dihydropyrrolo[3,4-c] pyrazole-5(1H)-carboxamide] is 270 nM.
Regarding `CC1(C)c2[nH]nc(Nc3ncncc3F)c2CN1C(=O)N[C@H]1C[C@@H]1c1ccccc1` (relative stereo) [Example 48, 3-[(5-fluoropyrimidin-4-yl)amino]-6,6-dimethyl-N-[trans-2-phenylcyclopropyl]-4,6-dihydropyrrolo[3,4-c]pyrazole-5(1H)-carboxamide], the Ki was 1000 nM.
In turn, `CC1(C)c2[nH]nc(Nc3ncnc4ccccc34)c2CN1C(=O)N[C@@H]1C[C@H]1c1ccccc1` (relative stereo) [Example 85, 3-(quinazolin-4-ylamino)-6,6-dimethyl-N-[trans-2-phenylcyclopropyl]-4,6-dihydropyrrolo[3,4-c]pyrazole-5(1H)-carboxamide] showed a Ki of 100 nM.
For the compound `CC1(C)c2[nH]nc(Nc3nc(C4CC4)nc4ccccc34)c2CN1C(=O)N[C@@H]1C[C@H]1c1ccccc1` (relative stereo) [Example 86, 3-[(2-cyclopropylquinazolin-4-yl)amino]-6,6-dimethyl-N-[trans-2-phenylcyclopropyl]-4,6-dihydropyrrolo[3,4-c]pyrazole-5(1H)-carboxamide], the Ki is 55 nM.
`CNC(=O)[C@@H]1CCCN1c1nc(Nc2n[nH]c3c2CN(C(=O)NC2CC2c2ccccc2)C3(C)C)nc(OC)n1` (stereo partly drawn) [Example 17]: the Ki was found to be 770 nM.
For the compound `COc1nc(Nc2n[nH]c3c2CN(C(=O)NC2CC2c2ccccc2)C3(C)C)nc(N2CC2C)n1` (stereo not drawn) [Example 18, 3-{[4-methoxy-6-(2-methylaziridin-1-yl)-1,3,5-triazin-2-yl]amino}-6,6-dimethyl-N-[trans-2-phenylcyclopropyl]-4,6-dihydropyrrolo[3,4-c]pyrazole-5(1H)-carboxamide], the affinity corresponds to a Ki of 340 nM.
`COc1nc(Nc2n[nH]c3c2CN(C(=O)NC2CC2c2ccccc2)C3(C)C)nc(N2CCC[C@H]2C(N)=O)n1` (stereo partly drawn) [Example 21, 3-({4-[(2S)-2-(aminocarbonyl)pyrrolidin-1-yl]-6-methoxy-1,3,5-triazin-2-yl}amino)-6,6-dimethyl-N-[trans-2-phenylcyclopropyl]-4,6-dihydropyrrolo[3,4-c]pyrazole-5(1H)-carboxamide] yielded a Ki of 240 nM.
Still for that read-out and setting: the figure for `CN(C)c1nc(Nc2n[nH]c3c2CN(C(=O)NC2C[C@@H]2c2ccccc2)C3(C)C)nc(N2CCC[C@H]2C(N)=O)n1` (stereo partly drawn) [Example 22] is 720 nM.
Take `Cc1cc(C)nc(Nc2n[nH]c3c2CN(C(=O)NC2C[C@@H]2c2ccccc2)C3(C)C)n1` (stereo partly drawn) [Example 24]: the Ki stood at 640 nM.
The same measure, in the same setting: the figure for `CCc1cc(Nc2n[nH]c3c2CN(C(=O)N[C@H](CN(C)C)c2ccccc2)C3(C)C)ncn1` [Example 54, N-[(1S)-2-(Dimethylamino)-1-phenylethyl]-3-[(6-ethylpyrimidin-4-yl)amino]-6,6-dimethyl-4,6-dihydropyrrolo[3,4-c]pyrazole-5(1H)-carboxamide] is 140 nM.
`CN(C)C[C@@H](NC(=O)N1Cc2c(Nc3ncnc4c3ncn4C)n[nH]c2C1(C)C)c1ccccc1` [Example 57, N-[(1S)-2-(dimethylamino)-1-phenylethyl]-6,6-dimethyl-3-[(9-methyl-9H-purin-6-yl)amino]-4,6-dihydropyrrolo[3,4-c]pyrazole-5(1H)-carboxamide] displayed a Ki of 940 nM.
Still for that read-out and setting: next, `Cc1cc2c(Nc3n[nH]c4c3CN(C(=O)O[C@H](CN(C)C)c3ccccc3)C4(C)C)ncnc2s1` [Example 71, (1S)-2-(dimethylamino)-1-phenylethyl 6,6-dimethyl-3-[(6-methylthieno[2,3-d]pyrimidin-4-yl)amino]-4,6-dihydropyrrolo[3,4-c]pyrazole-5(1H)-carboxylate]: 5.2 nM.
Compound `Cc1csc2c(Nc3n[nH]c4c3CN(C(=O)N3C[C@@H]5CCCN5C[C@@H]3C)C4(C)C)ncnc12` [Example 81, N-(6,6-dimethyl-5-{[(3S,8aS)-3-methylhexahydropyrrolo[1,2-a]pyrazin-2(1H)-yl]carbonyl}-1,4,5,6-tetrahydropyrrolo[3,4-c]pyrazol-3-yl)-7-methylthieno[3,2-d]pyrimidin-4-amine] registered a Ki of 84 nM.
Same read-out and setting: next, `Cc1ncnc(Nc2n[nH]c3c2CN(C(=O)N2C[C@@H]4CCCN4C[C@@H]2C)C3(C)C)c1F` [Example 82, N-(5-fluoro-6-methylpyrimidin-4-yl)-6,6-dimethyl-5-{[(3S,8aS)-3-methylhexahydropyrrolo[1,2-a]pyrazin-2(1H)-yl]carbonyl}-1,4,5,6-tetrahydropyrrolo[3,4-c]pyrazol-3-amine]: 2500 nM.
